Results published in patent US11685738B2, “Fluorinated tetrahydronaphthyridinyl nonanoic acid derivatives and uses thereof” (OcuTerra Therapeutics, Inc., priority 2015, dated 2023).
pIC50: −log10 of the molar value.

What was measured:
αvβ6 = αvβ6 (Homo sapiens (Human), UniProt P06756+P18564); assay: αVβ6–LAP-TGF β1 integrin binding assay (integrin-coupled beads, flow cytometry); conditions: for pIC50: ligand LAP TGF-β1; for αvβ8/αvβ6: ratio of αvβ8 IC50 to αvβ6 IC50
Text: (§1) All αV Integrins are known to bind to proteins with a RGD motif. Two RGD ligands were used in this study: Vitronectin (VN) as a ligand for αVβ3 and αVβ5 (Wayner et al., J. Cell Biol., 113 (4), 919-929, 1991), and LAP TGF-β1 (LAP1) as a ligand for αVβ6 and αVβ8 (Rognoni et al., Nat. Med., 20(4): 350-359, 2014). CWHM12 was used as a positive control for αVβ6 and αVβ8 (Henderson et al., Nat. Med. 19(12), 10.1038/nm.3282 2013), and Cilengitide as a positive control for αVβ3 and αVβ5 (Kumar et al., J. Pharmacol. Exp. Ther., 283, 843-853, 1997).
(§2) The integrin coupled Dyna beads were allowed to interact with respective ligands. The integrin-ligand complex was detected with either Primary/Secondary Antibody conjugated with Fluorescein Isothiocyanate (FITC). For αVβ3 and αVβ5, Vitronectin was used as a ligand and a primary antibody conjugated with FITC (Anti-VN-FITC Ab) was used to detect the interaction. For αVβ6 and αVβ8, LAP-TGF (31 was used as ligand and a primary antibody against LAP1 (Anti-LAP1 Ab) and a secondary antibody conjugated with FITC were used to detect the αVβ6/αVβ8-LAP-TGF (31 complex. Fluorescence was measured by Flow Cytometry analysis.
(§3) 5 mg of Dyna beads were weighed in a low protein binding microfuge (Eppendorf) tube (1.5 mL volume). The beads were re-suspended in 1 mL of Sodium Phosphate Buffer and vortexed at high speed for 30 seconds. The tube was then placed in a tube roller and tilt rotated for 10 min. After tilt rotation, the tube was placed on the Magna Spin and the beads were allowed to settle. The supernatant was discarded and the beads were washed three times. The beads were then re-suspended in 100 μL of Sodium Phosphate Buffer and 20 μL of washed beads were distributed into 5 low protein binding Eppendorf tubes (1 mg of beads in each tube). The beads were used for coupling integrins.
(§4) 20 μL of (1 mg) of beads were mixed with 20 μL of integrins (20 μg) and 20 μL of 3 M Ammonium Sulfate solution (final concentration of ammonium sulfate was 1M) to achieve a Bead: Protein ratio of 5 mg:100 μg. The solution was mixed gently and placed in a tube roller and incubated at 37° C. for 16 hours.
(§5) αVβ6/αVβ8 coupled beads were treated with the ligand LAP TGF-β1 (LAP1) at room temperature for 3 hours. The complex (Integrin+Ligand) was then treated with primary Ab (Anti-LAP1 Ab) overnight at 4° C. The whole complex (Integrin+Ligand+Primary Ab) was treated with Secondary Ab conjugated with FITC and incubated for 2 hours. The complex was analyzed by either plate reader or Flow Cytometer.
(§6) 10 μL of αVβ6/αVβ8 coupled beads were taken for the experiment. The concentration of integrins was 10 nM. 10 μL of LAP1 was taken (10 nM for aVβ6 and 20 nM for aVβ8). Reaction between integrin coupled beads and LAP1 was considered as the full reaction, and reaction without LAP1 or a compound of the disclosure was considered as the blank reaction. The samples were incubated in low protein binding tubes at room temperature for 3 hours. The tubes were briefly spun and placed in a Magna spin. The supernatant was removed. The beads were washed with assay buffer twice to remove excess LAP1 and then re-suspended in […] assay buffer containing 1:200 anti-LAP1 Ab (primary Ab). The tubes were placed in a tube roller and incubated at 4° C. overnight. After a brief spin, the tubes were then placed in a Magna spin and the supernatant was removed. The beads were washed with assay buffer twice to remove excess primary Ab and then re-suspended in 150 μL of assay buffer containing 1:500 secondary Ab conjugated with FITC. The tubes were incubated at room temperature for 2 hours in a tube roller. After a brief spin, the tubes were placed in a Magna spin and the supernatant was removed. The beads were washed with assay buffer twice followed by PBS. The beads were then re-suspended in 300 μL of PBS and analyzed by a Flow Cytometer (BD FACSCalibur, Software—BDcell Quest Pro Version 6). […]

αvβ8 = αvβ8 (Homo sapiens (Human), UniProt P06756+P26012); assay: αVβ8–LAP-TGF β1 integrin binding assay (integrin-coupled beads, flow cytometry); conditions: ligand LAP TGF-β1
Text: as §1, §2, §3, §4, §5, §6

αvβ3 = αvβ3 (Homo sapiens (Human), UniProt P05106+P06756); assay: αVβ3–vitronectin integrin binding assay (integrin-coupled beads, flow cytometry); conditions: ligand vitronectin
Text: as §1, §2, §3, §4
αVβ3/αVβ5 coupled beads were treated with the ligand at room temperature for 3 hours. The complex (Integrin+Ligand) was then treated with Anti-Vitronectin Ab conjugated with FITC overnight at 4° C. The complex was analyzed by either plate reader or Flow Cytometer.
10 μL of αVβ3/αVβ5 coupled beads were taken for the experiment. The concentration of integrins was 10 nM. 10 μL of vitronectin was taken. The concentration was 10 nM. Reaction between integrin coupled beads and vitronectin was considered as the full reaction, and reaction without vitronectin or a compound of the disclosure was considered as the blank reaction. The samples were incubated in low protein binding tubes at room temperature for 3 hours. The tubes were briefly spun and placed in a Magna spin. The supernatant was then removed. The beads were washed with assay buffer twice to remove excess vitronectin and then re-suspended in 150 μL of assay buffer containing 1:500 Anti-vitronectin Ab conjugated with FITC. The tubes were placed in a tube roller and incubated at 4° C. overnight. […] The beads were then re-suspended in […] PBS and analyzed by a Flow Cytometer (BD FACSCalibur, Software—BD Cell Quest Pro Version 6).
The samples were acquired using a BD FACSCalibur system and analyzed with BD Cell quest pro Version 6. […] Percentage of binding was calculated with respect to full reaction. […]

[1] = tested on: bleomycin induced lung stiffness; assay: Bleomycin induced mouse pulmonary fibrosis model (lung stiffness, pressure-volume curves); assay type: in vivo, male C57BL/6 mice; conditions: for reversal of bleomycin induced lung stiffness, compared to the vehicle control group: all doses tested (10, 30, 100 mg/kg PO, day 0-21); for reversal of lung stiffness compared to positive control pirfenidone 100 mg/kg BID: mid- and high-dose groups (30 and 100 mg/kg PO)
Experimental: Experimental animals are randomly and prospectively assigned to groups. On day 0 and prior to bleomycin induction, animals are administered the first dose of vehicle or a compound of the present disclosure. Following dosing, all animals are anesthetized. A small diameter cannula is inserted into the trachea and saline or bleomycin is slowly infused into the lungs. Group 1 serves as an untreated control group and receives saline only (no bleomycin) on day 0. The other groups receive bleomycin on day 0. Treatments with vehicle (e.g., methylcellulose), positive control (e.g., Pirfenidone), or a compound of the present disclosure are administered once or twice daily via oral gavage (PO). All animals are weighed and evaluated daily for respiratory distress.
Prior to sacrifice, animals are anesthetized and once the animal is determined to be non-responsive a shallow incision is made. The trachea is isolated and a transverse cut is made between tracheal rings approximately half-way through the trachea. A tracheotomy is performed by the insertion of a cannula through the incision secured with surgical suture to the trachea. Following cannulation, the adapter end of the cannula is attached to the mechanical ventilator. The animal is ventilated and following an acclimation period, lung volume is standardized and each animal undergoes a measure of total respiratory impedance.
Ninety-five male C57BL/6 mice were randomly and prospectively assigned to one group of fifteen animals and eight groups of ten animals each. On day 0 and at least one hour prior to bleomycin induction, animals were administered the first dose of vehicle or test-article (i.e., a compound of the present disclosure). At least one hour following dosing, all mice were anesthetized with isoflurane and placed on their backs lying on a table at approximately 60°. A small diameter cannula was inserted into the trachea, and saline or bleomycin was slowly infused into the lungs in a volume of 40 μL.
Group 1 served as an untreated control group and received saline only (no bleomycin) on day 0. Groups 2-9 received 2.25 U/kg of bleomycin on day 0. The animals were then released into a recovery cage and allowed to wake up. From day 0 through day 21, treatments were administered once or twice daily via oral gavage (PO). Vehicle treated animals (Group 2) received 0.4% methylcellulose. Remaining animals received either Pirfenidone at 100 mg/kg (Group 3), Compound A15s at 100 mg/kg (Group 4), 30 mg/kg (Group 5) or 10 mg/kg (Group 6), or Compound A21 at 100 mg/kg (Group 7), 30 mg/kg (Group 8) or 10 mg/kg (Group 9).
All animals were weighed and evaluated daily for respiratory distress (defined as an increase in respiratory rate and/or obvious respiratory effort). Animals with severe respiratory distress, or animals that lost greater than 30% of their total starting body weight, were euthanized within 2 hours of observation.
On Day 21, prior to sacrifice, mice were anesthetized with IP injection of ketamine/xylazine (100 mg/kg, 10 mg/kg). Once the animal was determined to be non-responsive a shallow 2 cm vertical incision was made starting from 1 cm below the chin. The trachea was isolated and a transverse cut was made between tracheal rings approximately half-way through the trachea. A tracheotomy was performed by the insertion of an 18 gauge polyethylene cannula through the incision secured with surgical suture to the trachea. Following cannulation, the adapter end of the cannula was attached to the flexiVent mechanical ventilator. The animal was ventilated at 10 ml/kg tidal volume (VT), 150 breaths per minute and 3 cm H2O positive end expiratory pressure (PEEP). Following a 2-minute acclimation period, lung volume was standardized with 1, 6-second deep inflation to a pressure of 30 cm H2O followed by 2 pressure-volume measurements up to 40 ml/kg. […]

αvβ8, sequence (P06756 31-992): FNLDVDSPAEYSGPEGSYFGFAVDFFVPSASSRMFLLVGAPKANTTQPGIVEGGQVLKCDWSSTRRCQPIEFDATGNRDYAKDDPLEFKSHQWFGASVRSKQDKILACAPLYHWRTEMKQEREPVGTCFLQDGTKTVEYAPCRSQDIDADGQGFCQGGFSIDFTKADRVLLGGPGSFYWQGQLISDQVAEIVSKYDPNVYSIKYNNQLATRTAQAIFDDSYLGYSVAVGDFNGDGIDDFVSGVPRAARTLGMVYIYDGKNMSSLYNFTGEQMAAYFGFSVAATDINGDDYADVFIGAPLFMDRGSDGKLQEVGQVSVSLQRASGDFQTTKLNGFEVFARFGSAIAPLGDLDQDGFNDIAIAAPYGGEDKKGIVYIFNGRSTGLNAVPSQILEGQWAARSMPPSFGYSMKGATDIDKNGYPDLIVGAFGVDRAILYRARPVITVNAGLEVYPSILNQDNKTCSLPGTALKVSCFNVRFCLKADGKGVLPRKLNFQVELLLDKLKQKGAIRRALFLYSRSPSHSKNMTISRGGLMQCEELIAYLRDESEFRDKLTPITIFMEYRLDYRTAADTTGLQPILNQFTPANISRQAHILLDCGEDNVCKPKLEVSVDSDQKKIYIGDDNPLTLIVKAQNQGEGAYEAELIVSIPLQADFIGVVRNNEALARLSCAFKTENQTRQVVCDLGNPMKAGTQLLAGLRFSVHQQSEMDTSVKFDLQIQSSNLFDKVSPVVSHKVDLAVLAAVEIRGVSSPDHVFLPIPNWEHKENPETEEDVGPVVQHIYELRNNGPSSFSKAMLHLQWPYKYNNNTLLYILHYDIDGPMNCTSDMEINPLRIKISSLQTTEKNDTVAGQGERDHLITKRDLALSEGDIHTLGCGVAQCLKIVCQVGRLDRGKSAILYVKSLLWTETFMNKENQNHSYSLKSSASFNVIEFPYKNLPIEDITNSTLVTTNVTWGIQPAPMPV
αvβ8, sequence (P26012 43-684): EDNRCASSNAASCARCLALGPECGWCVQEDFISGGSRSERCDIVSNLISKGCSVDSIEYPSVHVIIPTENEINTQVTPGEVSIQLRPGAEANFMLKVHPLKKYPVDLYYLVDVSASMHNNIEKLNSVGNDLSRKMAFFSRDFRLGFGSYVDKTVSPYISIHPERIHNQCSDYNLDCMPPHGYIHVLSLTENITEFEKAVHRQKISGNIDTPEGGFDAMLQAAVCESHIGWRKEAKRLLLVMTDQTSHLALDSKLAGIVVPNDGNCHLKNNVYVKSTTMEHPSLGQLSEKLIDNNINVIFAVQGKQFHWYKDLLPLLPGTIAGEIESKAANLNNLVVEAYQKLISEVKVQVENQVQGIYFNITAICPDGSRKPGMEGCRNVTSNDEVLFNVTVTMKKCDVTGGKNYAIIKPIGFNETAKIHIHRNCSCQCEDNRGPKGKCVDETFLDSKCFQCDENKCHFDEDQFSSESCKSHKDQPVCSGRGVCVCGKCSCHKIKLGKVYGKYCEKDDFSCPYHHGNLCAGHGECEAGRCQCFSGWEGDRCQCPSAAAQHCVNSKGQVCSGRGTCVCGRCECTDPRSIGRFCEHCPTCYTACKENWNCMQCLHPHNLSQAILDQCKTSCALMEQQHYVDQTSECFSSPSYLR
αvβ6, sequence (P06756 31-992): as the sequence (P06756 31-992) above
αvβ6, sequence (P18564 22-707): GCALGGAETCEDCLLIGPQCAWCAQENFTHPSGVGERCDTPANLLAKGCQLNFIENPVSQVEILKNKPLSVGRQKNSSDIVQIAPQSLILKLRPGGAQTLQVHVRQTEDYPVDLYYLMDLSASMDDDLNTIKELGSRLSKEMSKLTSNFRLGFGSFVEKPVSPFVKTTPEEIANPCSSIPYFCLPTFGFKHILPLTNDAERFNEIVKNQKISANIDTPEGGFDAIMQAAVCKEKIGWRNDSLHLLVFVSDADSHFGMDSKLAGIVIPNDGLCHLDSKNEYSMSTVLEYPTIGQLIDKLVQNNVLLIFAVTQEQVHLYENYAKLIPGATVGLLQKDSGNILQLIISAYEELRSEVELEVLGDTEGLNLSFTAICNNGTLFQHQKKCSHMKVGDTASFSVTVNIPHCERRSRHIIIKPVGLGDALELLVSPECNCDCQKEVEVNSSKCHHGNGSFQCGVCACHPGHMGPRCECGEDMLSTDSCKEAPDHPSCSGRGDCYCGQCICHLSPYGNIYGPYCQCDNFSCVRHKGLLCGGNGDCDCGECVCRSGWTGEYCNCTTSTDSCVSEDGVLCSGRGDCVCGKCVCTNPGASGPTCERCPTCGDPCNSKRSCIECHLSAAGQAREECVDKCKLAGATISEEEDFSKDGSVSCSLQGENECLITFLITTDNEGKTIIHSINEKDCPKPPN
αvβ3, sequence (P06756 31-992): as the sequence (P06756 31-992) above
αvβ3, sequence (P05106 27-718): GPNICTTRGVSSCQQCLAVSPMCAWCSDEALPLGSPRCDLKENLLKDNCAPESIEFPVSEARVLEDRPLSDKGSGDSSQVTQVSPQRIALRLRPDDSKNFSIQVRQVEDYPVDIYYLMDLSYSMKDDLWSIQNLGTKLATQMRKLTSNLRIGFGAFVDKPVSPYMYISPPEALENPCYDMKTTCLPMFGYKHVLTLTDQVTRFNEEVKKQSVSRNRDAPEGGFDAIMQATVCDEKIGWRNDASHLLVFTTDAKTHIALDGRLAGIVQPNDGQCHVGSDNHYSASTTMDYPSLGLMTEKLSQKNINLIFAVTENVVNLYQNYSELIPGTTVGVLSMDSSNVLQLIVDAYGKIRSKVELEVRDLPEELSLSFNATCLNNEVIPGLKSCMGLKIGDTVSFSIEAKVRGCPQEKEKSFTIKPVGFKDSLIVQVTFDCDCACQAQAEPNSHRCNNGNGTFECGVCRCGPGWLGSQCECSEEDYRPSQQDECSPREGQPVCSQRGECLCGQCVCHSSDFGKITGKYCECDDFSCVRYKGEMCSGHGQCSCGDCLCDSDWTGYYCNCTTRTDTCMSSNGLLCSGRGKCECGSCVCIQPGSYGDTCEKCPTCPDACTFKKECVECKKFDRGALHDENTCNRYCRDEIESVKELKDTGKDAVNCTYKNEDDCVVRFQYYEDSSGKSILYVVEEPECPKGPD

| Compound | pIC50 (αvβ6) | αvβ8/αvβ6 (αvβ6) | pIC50 (αvβ8) | pIC50 (αvβ3) | reversal of bleomycin induced lung stiffness, mid- and high-dose groups ([1]; 30 and 100 mg/kg PO, day 0-21) | reversal of bleomycin induced lung stiffness, compared to the vehicle control group [1] | reversal of lung stiffness compared to positive control pirfenidone 100 mg/kg BID [1] | lung stiffness compared to saline treated animal group (no bleomycin) ([1]; mid-dose group (30 mg/kg PO)) |
| --- | --- | --- | --- | --- | --- | --- | --- | --- |
| O=C(O)CC(CCCCCCc1ccc2c(n1)NCCC2)c1cccc(C(F)(F)F)c1 (single isomer, unassigned) [Compound A21-2] | 8.34 | 10.93 | 7.30 |  |  |  |  |  |
| O=C(O)C[C@@H](c1ccc(OC(F)F)nc1)N1CCN(CCCc2ccc3c(n2)NCCC3)C1=O [Compound A1, (S)-3-(6-(difluoromethoxy)pyridin-3-yl)-3-(2-oxo-3-(3-(5,6,7,8-tetrahydro-1,8-naphthyridin-2-yl)propyl)imidazolidin-1-yl)propanoic acid] | 8.08 | 1.59 | 7.88 |  |  |  |  |  |
| O=C(O)CC(CCCCCCc1ccc2c(n1)NCCC2)c1cnc(C(F)(F)F)nc1 (centres unmarked) [Compound A2, 9-(5,6,7,8-tetrahydro-1,8-naphthyridin-2-yl)-3-(2-(trifluoromethyl)pyrimidin-5-yl)nonanoic acid] | 7.93 | 6.71 | 7.11 | 8.05 |  |  |  |  |
| O=C(O)CC(CCCCCCc1ccc2c(n1)NCCC2)c1cnc2cc(F)c(F)cc2c1 (centres unmarked) [Compound A6, 3-(6,7-difluoroquinolin-3-yl)-9-(5,6,7,8-tetrahydro-1,8-naphthyridin-2-yl)nonanoic acid] | 8.08 | 2.91 | 7.62 |  |  |  |  |  |
| O=C(O)CC(CCCCCCc1ccc2c(n1)NCCC2)c1cnc2cc(C(F)(F)F)ccc2c1 (centres unmarked) [Compound A7, 9-(5,6,7,8-tetrahydro-1,8-naphthyridin-2-yl)-3-(7-(trifluoromethyl)quinolin-3-yl)nonanoic acid] | 7.93 | 6.93 | 7.09 |  |  |  |  |  |
| O=C(O)C[C@@H](c1cccc(C(F)(F)F)c1)N1CCN(CCCc2ccc3c(n2)NCCC3)C1=O [Compound A15s, (S)-3-(2-oxo-3-(3-(5,6,7,8-tetrahydro-1,8-naphthyridin-2-yl)propyl)imidazolidin-1-yl)-3-(3-(trifluoromethyl)phenyl)propanoic acid] | 8.03 | 0.64 | 8.23 |  | significant reversal of bleomycin induced lung stiffness | reversed bleomycin induced lung stiffness at all doses tested | superior to the positive control pirfenidone | indistinguishable from the saline treated animal group |
| O=C(O)CC(CCCCCCc1ccc2c(n1)NCCC2)c1cccc(C(F)(F)F)c1 (centres unmarked) [Compound A21] | 8.12 | 11.54 | 7.05 |  |  | reversed bleomycin induced lung stiffness at all doses tested | similar, if not better, reversal of bleomycin induced lung stiffness |  |
| O=C(O)CC(CCCCCCc1ccc2c(n1)NCCC2)c1cc(Cl)cc(C(F)(F)F)c1 (centres unmarked) [Compound A24, 3-(3-chloro-5-(trifluoromethyl)phenyl)-9-(5,6,7,8-tetrahydro-1,8-naphthyridin-2-yl)nonanoic acid] | 7.76 | 2.02 | 7.45 |  |  |  |  |  |
| O=C(O)CC(CCCCCCc1ccc2c(n1)NCCC2)c1cc(C(F)(F)F)ccc1F (centres unmarked) [Compound A28] | 7.77 | 2.04 | 7.46 |  |  |  |  |  |
| COc1ccc([C@H](CC(=O)O)N2CCN(CCCc3ccc4c(n3)NCCC4)C2=O)cn1 [Compound A30s] |  | 1.83 |  |  |  |  |  |  |
